Data taken from paper PMC9923736, “Optimized Ebselen-Based Inhibitors of Bacterial Ureases with Nontypical Mode of Action” (Journal of Medicinal Chemistry, 2023).

Key:
[1] = biological target: Sporosarcina pasteurii urease (Sporosarcina pasteurii, UniProt P41020); assay: Inhibition of purified S. pasteurii urease (Ki; phenol-hypochlorite/Berthelot ammonia assay); type: biochemical; details: for mechanism of inhibition: S. pasteurii urease, Lineweaver-Burk plots / reaction progress curves
Experimental: The values of kinetic parameters ( and KM
vmax) of the purified enzyme were determined by fitting the initial reaction velocities measured in a range of urea concentrations to the Michaelis-Menten equation by nonlinear regression. The values […]
Enzymatic reactions were carried out in 3 mM phosphate buffer pH 7.5 at 37 °C. The kinetic parameters of urease in the noninhibited reaction ( and ) were obtained by measuring the Kmvmax […]
activity was defined as the amount of enzyme required to produce 1 µM ammonia per min under […]
S2.1. Inhibition studies.
S. pasteuriipM urease in assay mixtures (200 μL total volume) containing increasing concentrations […]
The values were calculated using the appropriate equations in Ki the GraphPad Prism 5 software. The inhibition mechanism was determined using Lineweaver-Burk plots after testing at least five inhibitor concentrations in the range depending on their inhibitory strength (exemplified in Figure S26).
S2.2. Inhibition studies. […]
and 52), ammonia concentration versus time, for urea hydrolysis catalyzed by S. pasteurii urease in the absence and presence of inhibitors were performed in standard assay mixtures at a single urea concentration (final concentration 25 mM) and at different inhibitor concentrations according to their inhibitory strength. Enzymatic hydrolysis of urea was initiated by adding […] of urease solution […]
min in samples taken from reaction mixtures at set time intervals. The reaction mixtures were stirred throughout the measurement period. The nonlinear reaction progress curves with time-dependent inhibitors of urease (for the nonincubated reaction and under conditions: [I]0 ≫ [E] 0) were described using the integrated equation: , (where is the concentration [P]=vt+(v+v)(1―e―kappt)1P […]
of the reaction product formed at time t, which is the reaction time, and are the reaction initial vivs and steady-state rates, respectively, and is the apparent first-order rate constant for the kapp interconversion between and ). […] The vivs […]
equilibrium dissociation constants of the initial and the final enzyme conformation complex EI EI ∗ […]
is the Michaelis-Menten constant, maximum rate of enzyme in a noninhibited reaction, vmax S and I are substrate and inhibitor concentration). The mechanism of inhibitor binding was determined using steady-state kinetic measurements (Figures S27 and S28). […]
pM) was pre-incubated with increasing inhibitor concentrations in separate aliquots of reaction buffer prior to the initiation of the reaction by urea incorporation at a concentration ranging from 1 to 60 mM. The incubation time was different for the assayed inhibitors, depending on when equilibrium was achieved between enzyme , inhibitor and enzyme-inhibitor complexes ( and : (E)(I)EI EI ∗ E + I ↔EI ↔ EI ∗ ) . The values were calculated using the appropriate equations implemented in Ki the GraphPad Prism 5 software. The inhibitors were dissolved in water or DMF (the solvent was […]
Urease activity was determined using the […]
run in triplicate for the compounds analyzed.

[2] = test system: urease in living cells of P. mirabilis PCM 543; assay: Inhibition of ureolysis in whole P. mirabilis cells in artificial urine model; details: Proteus mirabilis, read-out: IC90 (urine model)
[3] = test system: urease in living cells of P. mirabilis PCM 543; assay: Inhibition of ureolysis in whole P. mirabilis cells in PBS buffer (nongrowth conditions); details: Proteus mirabilis, read-out: IC50 (PBS buffer)
histone deacetylases = biological target: histone deacetylases; parameters: method as in PMID 22047054; details: cited from earlier work
[4] = biological target: methionine aminopeptidase 2; details: cited from earlier work
glutamate dehydrogenase = details: cited from earlier work
antigen 85 complex = antigen 85 complex of Mycobacterium tuberculosis; cited from earlier work
[5] = biological target: bacterial thioredoxin reductase, Bacillus anthracis; details: cited from earlier work

Sporosarcina pasteurii urease, sequence (P41020 whole entry, looked up): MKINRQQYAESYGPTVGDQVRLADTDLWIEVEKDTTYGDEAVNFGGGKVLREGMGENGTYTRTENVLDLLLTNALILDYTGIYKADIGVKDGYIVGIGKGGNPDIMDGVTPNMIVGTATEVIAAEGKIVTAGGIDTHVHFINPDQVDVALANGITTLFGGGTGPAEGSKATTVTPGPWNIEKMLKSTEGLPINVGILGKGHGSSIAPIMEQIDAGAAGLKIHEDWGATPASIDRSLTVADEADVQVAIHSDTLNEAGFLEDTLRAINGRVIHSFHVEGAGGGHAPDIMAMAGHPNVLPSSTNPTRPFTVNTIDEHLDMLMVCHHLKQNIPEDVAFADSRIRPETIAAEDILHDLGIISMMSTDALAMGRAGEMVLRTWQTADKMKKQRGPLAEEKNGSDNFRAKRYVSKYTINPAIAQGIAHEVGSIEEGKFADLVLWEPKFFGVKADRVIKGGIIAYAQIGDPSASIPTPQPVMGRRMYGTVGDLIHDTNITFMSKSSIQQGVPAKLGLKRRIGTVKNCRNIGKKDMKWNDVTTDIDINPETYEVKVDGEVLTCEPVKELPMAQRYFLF

Row | SMILES | Ki [1] [nM] | IC90 [2] [nM] | IC50 [3] [nM] | also measured
1 | O=c1c2ccccc2[se]n1-c1ccccc1O [compound 34, 2-(2-Hydroxyphenyl)-1,2-benzisoselenazol-3(2H)-one] | 1.42 ± 0.14 | 148 ± 6 | 16.8 ± 1.4 | –
2 | O=c1c2ccccc2[se]n1-c1ccccc1Cl [compound 32, 2-(2-Chlorophenyl)-1,2-benzisoselenazol-3(2H)-one] | 13.7 ± 0.96 | 87.7 ± 8.3 | 13.6 ± 1.5 | –
3 | O=c1c2ccccc2[se]n1-c1cc(Cl)ccc1Cl [compound 51, 2-(2,5-Dichlorophenyl)-1,2-benzisoselenazol-3(2H)-one] | 0.00885 | 254 ± 14 | 21.2 ± 1.5 | –
4 | COc1ccc(-n2[se]c3ccccc3c2=O)c(C)c1 [compound 43, 2-(4-Methoxy-2-methylphenyl)-1,2-benzisoselenazol-3(2H)-one] | 7.3 ± 0.56 | 148 ± 10 | 25.1 ± 2 | mechanism of inhibition [1]: Slow binding inhibition
5 | O=c1c2ccccc2[se]n1-c1ccccc1F [compound 31, 2-(2-Fluorophenyl)-1,2-benzisoselenazol-3(2H)-one] | 0.974 ± 0.089 | 34.7 ± 2.7 | 7.48 ± 0.67 | –
6 | COc1ccccc1-n1[se]c2ccccc2c1=O [compound 35, 2-(2-Methoxyphenyl)-1,2-benzisoselenazol-3(2H)-one] | 5.36 ± 0.43 | 18.8 ± 2.4 | 4.19 ± 0.45 | –
7 | Cc1ccc(Cl)c(-n2[se]c3ccccc3c2=O)c1 [compound 50, 2-(2-Chloro-5-methylphenyl)-1,2-benzisoselenazol-3(2H)-one] | 1.63 ± 0.13 | 243 ± 17 | 54 ± 2.7 | –
8 | Cc1ccc(-n2[se]c3ccccc3c2=O)cc1 [compound 38, 2-(4-Methylphenyl)-1,2-benzisoselenazol-3(2H)-one] | 4.04 ± 0.32 | – | – | –
9 | COc1cccc(-n2[se]c3ccccc3c2=O)c1 [compound 37, 2-(3-Methoxyphenyl)-1,2-benzisoselenazol-3(2H)-one] | 1.07 ± 0.08 | 53.8 ± 3.7 | 11.5 ± 1.3 | mechanism of inhibition [1]: Slow binding inhibition
10 | COc1ccc(Cl)cc1-n1[se]c2ccccc2c1=O [compound 53, 2-(5-Chloro-2-methoxyphenyl)-1,2-benzisoselenazol-3(2H)-one] | 1.63 ± 0.12 | 82.2 ± 11.3 | 21.9 ± 1.7 | –
11 | O=c1c2ccccc2[se]n1-c1cccc(F)c1 [compound 36, 2-(3-Fluorophenyl)-1,2-benzisoselenazol-3(2H)-one] | 1.89 ± 0.16 | 223 ± 17 | 8.86 ± 0.81 | –
12 | COc1ccc(C)cc1-n1[se]c2ccccc2c1=O [compound 52, 2-(2-Methoxy-5-methylphenyl)-1,2-benzisoselenazol-3(2H)-one] | 7.11 ± 0.56 | 96.6 ± 8.1 | 11.8 ± 1.6 | mechanism of inhibition [1]: Slow binding inhibition
13 | Cc1ccccc1-n1[se]c2ccccc2c1=O [compound 30, 2-(2-Methylphenyl)-1,2-benzisoselenazol-3(2H)-one] | 3.56 ± 0.32 | 121 ± 13 | 25 ± 2 | –
14 | Cc1ccc(-n2[se]c3ccccc3c2=O)c(Cl)c1 [compound 46, 2-(2-Chloro-4-methylphenyl)-1,2-benzisoselenazol-3(2H)-one] | 3.26 ± 0.23 | 176 ± 12 | 20 ± 1.7 | –
15 | Cc1ccc(Cl)cc1-n1[se]c2ccccc2c1=O [compound 48, 2-(5-Chloro-2-methylphenyl)-1,2-benzisoselenazol-3(2H)-one] | 75.2 ± 6.2 | – | – | –
16 | O=c1c2ccccc2[se]n1-c1ccc(F)cc1Cl [compound 47, 2-(2-Chloro-4-fluorophenyl)-1,2-benzisoselenazol-3(2H)-one] | 0.0058 ± 0.0004 | 126 ± 8 | 22.7 ± 2.5 | –
17 | O=c1c2ccccc2[se]n1-c1cc(Cl)ccc1F [compound 49, 2-(5-Chloro-2-fluorophenyl)-1,2-benzisoselenazol-3(2H)-one] | 0.0135 ± 0.0014 | 151 ± 20 | 11.8 ± 1 | –
18 | O=c1c2ccccc2[se]n1-c1ccccc1Br [compound 33, 2-(2-Bromophenyl)-1,2-benzisoselenazol-3(2H)-one] | 6.79 ± 0.53 | 543 ± 26 | 26.9 ± 2.8 | –
19 | O=c1c2ccccc2[se]n1-c1ccc(C(F)(F)F)cc1 [compound 40, 2-(4-Trifluoromethylphenyl)-1,2-benzisoselenazol-3(2H)-one] | 0.0363 ± 0.0039 | 100 ± 14 | 16 ± 1.3 | –
20 | O=c1c2ccccc2[se]n1-c1ccc(F)cc1 [compound 39, 2-(4-Fluorophenyl)-1,2-benzisoselenazol-3(2H)-one] | 24.1 ± 2.6 | 145 ± 17 | 12.1 ± 1.4 | –
21 | CCCCOc1ccc(-n2[se]c3ccccc3c2=O)cc1 [compound 42, 2-(4-n-Butoxyphenyl)-1,2-benzisoselenazol-3(2H)-one] | 1.78 ± 0.18 | 224 ± 15 | 32.2 ± 3.8 | mechanism of inhibition [1]: Slow binding inhibition
22 | COc1ccc(-n2[se]c3ccccc3c2=O)cc1 [compound 41, 2-(4-Methoxyphenyl)-1,2-benzisoselenazol-3(2H)-one] | 44 ± 4.2 | 180 ± 10 | 15.9 ± 1.1 | –
23 | O=c1c2ccccc2[se]n1-c1ccc(F)cc1F [compound 44, 2-(2,4-Difluorophenyl)-1,2-benzisoselenazol-3(2H)-one] | 0.0167 ± 0.0017 | 130 ± 16 | 17 ± 1.8 | –
24 | O=c1c2ccccc2[se]n1-c1ccccc1 [compound 1, 2-phenyl-1,2-benzisoselenazol-3(2H)-one] | – | – | 29.2 ± 3.1 | Ki (histone deacetylases): 80 to 4420 nM; IC50 [4]: 2430 nM; IC50 (glutamate dehydrogenase): 360 nM; Ki (antigen 85 complex): 63 nM; IC50 [5]: 1000 nM
25 | Cc1cc(-n2[se]c3ccccc3c2=O)ccc1Cl [compound 54, 2-(4-Chloro-3-methylphenyl)-1,2-benzisoselenazol-3(2H)-one] | 2.45 ± 0.16 | 124 ± 14 | 23.8 ± 2 | –
